The structures appear in SMILES notation. Like-named read-outs stand apart in the source and are kept apart here.

The target of assay [1] is T1, rat lens AR (RLAR) (Rattus norvegicus, UniProt P07943).
T1 construct: BLAR and RLAR were purified according to the method of Inagaki et al; from tissue; host or cells: rat (Wistar) lens
The experiment in a line: Aldose reductase (AR) activity assay, rat lens AR (NADPH oxidation, DL-glyceraldehyde substrate). It counts as biochemical. Conditions: for inhibition at 10 µM: inhibitor 10^-5M, read-out: Inhibition against enzyme activity (%) RLAR 10^-5M; for inhibition at 10 µM / inhibition at 1 µM / inhibition at 0.1 µM: 30°C, pH 6.2, 1 % propylene glycol; for inhibition at 1 µM: inhibitor 10^-6M, read-out: Inhibition against enzyme activity (%) RLAR 10^-6M; for inhibition at 0.1 µM: inhibitor 10^-7M, read-out: Inhibition against enzyme activity (%) RLAR 10^-7M. How it is done: (§1) The inhibitory activitiy against AR of LARI was determined according to the following method. As reference examples, there were employed quercitrin and two flavone derivatives having a relatively similar structure to that of LARI, i.e. 6,4'-dihydroxy-5,7,8,3'-tetramethoxyflavone and 5,4'-dihydroxy-6,7,8,3'-tetramethoxyflavone (hereinafter referred to as "Ref-1" and "Ref-2", respectively).
(§2) Rat lenses were removed from eyes of rats of the Wistar strain weighing 200 to 250 g. Bovine eyes were obtained from a local abattoir, and the lenses were removed and frozen until needed.
(§3) All compounds to be subjected to examination were dissolved in propylene glycol being a useful solvent of low toxicity for some water-insoluble drugs. A 10^-3M solution was prepared and diluted to the desired concentration with propylene glycol. To the reaction mixture were added aliquots of the diluted solution to yield concentrations of 10^-8M to 10^-5M and a propylene glycol concentration of 1 %.
(§4) AR assays were conducted according to the procedure of Hayman and Kinoshita (J. Biol. Chem. 240, p. 877 (1965)), except for the addition of ammonium sulfate instead of lithium sulfate to the reaction mixture. Assays were performed at 30°C. in 0.1 M sodium phosphate buffer (pH 6.2) containing 0.4 M ammonium sulfate, 10 mM DL-glyceraldehyde and 0.16 mM NADPH and the enzyme (0.010 to 0.016 unit) in a total volume of 1.0 ml. The effects of inhibitors on the enzyme activity were determined in the reaction mixture containing 10 µl. of each inhibitor solution at the desired concentration. The blank reference to correct for non-specific reduction of NADPH contained all of the above compounds except the above DL-glyceraldehyde. The reaction was initiated by the addition of the above DL-glyceraldehyde, and the rate of NADPH oxidation was followed by recording the decrease in absorbance at 340 nm. on a Gilford model 250 spectrophotometer.
(§5) BLAR and RLAR were purified according to the method of Inagaki et al (Archs. Biochem. Biophys. 216, p. 337 (1982)). Briefly, a 40 to 75 % ammonium sulfate fraction was subjected to chromatography on DEAE-Sephacel, followed by two column chromatographic steps, i.e. affinity chromatography using Matrex gel red A and gel filtration on Sephadex G-75.
(§6) The concentration of inhibitor needed to elicit a 50 % inhibition (IC50) was determined according to the method of Kador et al (Docum. Ophthal. Proc. Series 18, p. 117 (1979)).

For assay [2], the target named is T2, bovine lens AR (BLAR) (Bos taurus, UniProt P16116).
T2 construct: BLAR and RLAR were purified according to the method of Inagaki et al; from tissue; host or cells: bovine lens
The assay is described as follows: Aldose reductase (AR) activity assay, bovine lens AR (NADPH oxidation, DL-glyceraldehyde substrate). It counts as biochemical. Particulars: for inhibition at 10 µM: inhibitor 10^-5M, read-out: Inhibition against enzyme activity (%) BLAR 10^-5M; for inhibition at 10 µM / inhibition at 1 µM / inhibition at 0.1 µM: 30°C, pH 6.2, 1 % propylene glycol; for inhibition at 1 µM: inhibitor 10^-6M, read-out: Inhibition against enzyme activity (%) BLAR 10^-6M; for inhibition at 0.1 µM: inhibitor 10^-7M, read-out: Inhibition against enzyme activity (%) BLAR 10^-7M. How it is done:
as §1, §2, §3, §4, §5, §6

The mark [3] stands for this setting: purified RLAR, Table 2, read-out: IC50 (M) X 10^6 RLAR.
Setting [4] is: read-out: IC50 (concentration of inhibitor needed to elicit 50 % inhibition) RLAR.
[5] abbreviates: read-out: IC50 (concentration of inhibitor needed to elicit 50 % inhibition) BLAR.

Consider `COc1cc(-c2cc(=O)c3c(O)c(OC)c(OC)c(OC)c3o2)ccc1O` [Ref-2, 5,4'-dihydroxy-6,7,8,3'-tetramethoxyflavone], for which, in assay [1], the inhibition at 10 µM came out at 40%, the inhibition at 1 µM came out at 15% and the inhibition at 0.1 µM was 0%. In assay [2], the inhibition at 10 µM was 56%, the inhibition at 1 µM amounted to 19% and the inhibition at 0.1 µM was 0%.

As for `COc1c(OC)c(OC)c2c(=O)cc(-c3ccc(O)c(O)c3)oc2c1OC` [LARI, 3',4'-dihydroxy-5,6,7,8-tetramethoxyflavone], the inhibition at 10 µM in assay [1] worked out at 97%; in assay [2] it was 100%. Moreover, the inhibition at 1 µM turned out to be 93% in assay [1] and 90% in assay [2]. Besides, the values for the inhibition at 0.1 µM in assay [1] and in assay [2] were 78% and 37%, respectively. For the same compound, the IC50 amounted to 3e-08 M in assay [1] (setting [3]), 3.6e-08 M in assay [1] (setting [4]) and 1.8e-07 M in assay [2] (setting [5]). In assay [1] (relative to quercitrin, AR in general (RLAR and BLAR not distinguished)), the “inhibitory activity against AR, times as potent as that of quercitrin” value is listed as “about 17 times”.

`C[C@@H]1O[C@@H](Oc2c(-c3ccc(O)c(O)c3)oc3cc(O)cc(O)c3c2=O)[C@H](O)[C@H](O)[C@H]1O` [quercitrin]: the inhibition at 10 µM in assay [1] came to 84%; in assay [2], 66%. Also, the inhibition at 1 µM in assay [1] was found to be 56%; in assay [2], 32%. Further, the inhibition at 0.1 µM in assay [1] came to 38%; in assay [2], 0%. Besides, the IC50 in assay [1] (setting [3]) is 4.9e-07 M; in assay [1] (setting [4]) it was 4.9e-07 M; in assay [2] (purified BLAR, Table 2, read-out: IC50 (M) X 10^6 BLAR) it was 3.3e-06 M; in assay [2] (setting [5]) it was 3.3e-06 M.

On to `COc1cc(-c2cc(=O)c3c(OC)c(O)c(OC)c(OC)c3o2)ccc1O` [Ref-1, 6,4'-dihydroxy-5,7,8,3'-tetramethoxyflavone], for which, in assay [1], the inhibition at 10 µM is 58%, the inhibition at 1 µM was found to be 22% and the inhibition at 0.1 µM was determined as 6%. For the same compound, in assay [2], the inhibition at 10 µM was 63%, the inhibition at 1 µM is 19% and the inhibition at 0.1 µM came to 0%.

Broadly, the inhibition is the change of the read-out against control, counted positive when it falls.

(Values after patent EP0118571A1, “Inhibitor of aldose reductase” (Kaken Pharmaceutical Co., Ltd., priority 1983, dated 1984).)
